According to ChEMBL document CHEMBL1143974, “Synthesis and cyclooxygenase inhibitory activities of linear 1-(methanesulfonylphenyl or benzenesulfonamido)-2-(pyridyl)acetylene regioisomers” (Bioorg Med Chem, 2008):

How the values were obtained:
[1] = target: T1, Prostaglandin G/H synthase 1 (Ovis aries, UniProt P05979); assay: Inhibition of ovine COX1 by enzyme immuno assay
T1 sequence (P05979 whole entry): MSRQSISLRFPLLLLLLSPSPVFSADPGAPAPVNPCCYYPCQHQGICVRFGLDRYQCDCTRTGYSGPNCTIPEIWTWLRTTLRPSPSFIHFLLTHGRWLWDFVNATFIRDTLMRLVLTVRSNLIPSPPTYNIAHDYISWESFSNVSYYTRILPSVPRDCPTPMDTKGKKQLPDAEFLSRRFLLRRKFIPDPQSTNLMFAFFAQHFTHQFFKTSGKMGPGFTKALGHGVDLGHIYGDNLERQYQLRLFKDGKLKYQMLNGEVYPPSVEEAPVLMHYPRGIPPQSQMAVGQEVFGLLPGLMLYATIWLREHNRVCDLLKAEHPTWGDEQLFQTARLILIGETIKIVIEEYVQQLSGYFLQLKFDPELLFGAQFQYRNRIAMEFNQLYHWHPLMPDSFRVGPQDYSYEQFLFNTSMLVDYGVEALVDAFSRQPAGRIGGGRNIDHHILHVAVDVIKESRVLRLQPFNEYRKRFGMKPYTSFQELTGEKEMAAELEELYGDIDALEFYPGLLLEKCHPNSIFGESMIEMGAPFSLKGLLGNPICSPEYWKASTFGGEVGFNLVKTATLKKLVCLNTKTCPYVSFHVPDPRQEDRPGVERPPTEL

Rattus norvegicus = assay: Antiinflammatory activity against carrageenan-induced foot paw edema in orally dosed rat after 3 hrs; format: functional; conditions: po, read-out: ID50 (the source's name)
Ovis aries = organism: Ovis aries; assay: Selectivity index, ratio of IC50 for ovine COX1 to IC50 for ovine COX2

Row | IC50 [1] | Ratio IC50 (Ovis aries) | Compound | ED50 (Rattus norvegicus)
1 | 0.26 µM | – | CS(=O)(=O)c1ccccc1C#Cc1ccncc1 | –
2 | – | – | CC(=O)Oc1ccccc1C(=O)O [ASPIRIN] | 129 mg/kg
3 | > 100 µM | > 312 | CS(=O)(=O)c1cccc(C#Cc2ccncc2)c1 | –
4 | 9.3 µM | – | NS(=O)(=O)c1ccc(C#Cc2ccccn2)cc1 | –
5 | 31.6 µM | – | CS(=O)(=O)c1cccc(C#Cc2ccccn2)c1 | 76.4 mg/kg
6 | 3.9 µM | – | NS(=O)(=O)c1ccc(C#Cc2ccncc2)cc1 | –
7 | 0.28 µM | – | CS(=O)(=O)c1ccccc1C#Cc1ccccn1 | –
8 | > 100 µM | – | Cc1cccnc1C#Cc1ccc(S(C)(=O)=O)cc1 | –
9 | 3.2 µM | – | CS(=O)(=O)c1ccc(C#Cc2cccnc2)cc1 | 59.9 mg/kg
10 | 2 µM | – | Cc1cccnc1C#Cc1ccccc1S(C)(=O)=O | –
11 | 31.7 µM | – | CS(=O)(=O)c1ccc(C#Cc2ccccn2)cc1 | –
12 | > 100 µM | > 3.1 | CS(=O)(=O)c1cccc(C#Cc2cccnc2)c1 | –
13 | 1.3 µM | – | Cc1cccnc1C#Cc1ccc(S(N)(=O)=O)cc1 | 76.6 mg/kg
